A short description of series [1]: Thermodynamic solubility of compound at pH 6.5. The series is classed as physicochemical. Conditions: buffer; for solubility thermodynamic: read-out: Therm_solubility.
Series [2] can be described thus: Lipophilicity, logD of compound at pH 7.5 by RP-HPLC analysis. Format: physicochemical. The conditions noted are these: buffer.
The nature of series [3]: Oral bioavailability in Wistar rat at 2 mg/kg. The series is classed as ADME, organism-based. Conditions: in vivo.
Series [4] is described as follows: Volume of distribution at steady state in Wistar rat at 0.5 mg/kg, iv. The series is classed as ADME, organism-based. The conditions noted are these: in vivo, read-out: Vdss.
A short description of series [5]: AUC in Wistar rat at 0.5 mg/kg, iv. The series is classed as ADME, organism-based. Conditions: in vivo.
Series [6] can be described thus: Apparent permeability across apical to basolateral side in human Caco2 cells at 2 uM after 2 hrs by LC/MS-MS analysis. Format: ADME, cell-based. The conditions noted are these: Caco-2. For orientation: Caco-2 cells form a polarised layer with tight junctions and transporters.
Series [7] is described as follows: Volume of distribution at steady state in Wistar rat at 1 mg/kg, iv. The series is classed as ADME, organism-based. Conditions: in vivo, read-out: Vdss.
The nature of series [8]: AUC in Wistar rat at 1 mg/kg, iv. Format: ADME, organism-based. Conditions: in vivo.
A short description of series [9]: Unbound drug level in plasma of CFA induced C57BL/6N mouse at […], po after 1 hr. The series is classed as ADME, organism-based. The conditions noted are these: in vivo.
Series [10] is described as follows: Unbound drug level in plasma of CFA induced C57BL/6N mouse at 25 mg/kg, po after 1 hr. The series is classed as ADME, organism-based. The conditions noted are these: in vivo.
A short description of series [11]: Unbound drug level in plasma of CFA induced C57BL/6N mouse at 50 mg/kg, po after 1 hr. Conditions: in vivo. The series is classed as ADME, organism-based.
Series [12] in a line: Unbound drug level in plasma of CFA induced C57BL/6N mouse at 50 mg/kg, po after 80 mins. The series is classed as ADME, organism-based. The conditions noted are these: in vivo.

In brackets after ≈: the same amount, converted by molar mass.

Usually logD stands for the decadic logarithm of the distribution of all forms, ionised or not, between an organic phase and buffer at a given pH. Low values mean a more hydrophilic compound, high ones a more lipophilic compound. Usually bioavailability stands for the share of a dose that reaches the circulation, judged against a reference dose that is usually intravenous. As a reminder, the Papp A→B is how fast a substance crosses the layer from the apical side.

In the case of `NS(=O)(=O)c1cc(NC(=O)Cc2ccccc2Cl)ccc1Oc1ccc(-c2nccs2)cc1`, the solubility thermodynamic in [1] worked out at 1 µg/mL (≈ 2 µM).
Still for that read-out and setting: next, `NS(=O)(=O)c1cc(NC(=O)Cc2c(F)cccc2Cl)ccc1Oc1cccc(Cl)c1`: 0.7 µg/mL (≈ 1.49 µM).
As for `NS(=O)(=O)c1cc(NC(=O)Cc2cc(F)ccc2Cl)ccc1OCC1CCOCC1`, the solubility thermodynamic in [1] stood at 24 µg/mL (≈ 52.5 µM). Also, the log distribution coefficient (logD) in series [2] amounted to 2.2. In addition, the bioavailability in [3] came out at 44%. Besides, the Vd in series [4] worked out at 0.82 L/kg. The AUC in series [5] was 1.11 kg·h/L. Besides, the Papp A→B at 2 h, 2 µM in [6] worked out at 4.3 ×10⁻⁶ cm/s.
As for `NS(=O)(=O)c1cc(NC(=O)Cc2ccccc2Cl)ccc1OCC1CCOCC1`, the solubility thermodynamic in series [1] was 21 µg/mL (≈ 47.8 µM). Moreover, the logD in [2] was determined as 2.2. In series [3], this molecule had a bioavailability of 21%. Besides, the Vd in [4] came out at 1.23 L/kg. Besides, the AUC in series [5] turned out to be 0.37 kg·h/L. Also, the apical-to-basolateral permeability (Papp A→B) at 2 h, 2 µM in series [6] worked out at 5.3 ×10⁻⁶ cm/s.
In turn, `NS(=O)(=O)c1cc(NC(=O)Cc2ccccc2C(F)(F)F)ccc1Oc1cccc(Cl)c1` registered a logD in [2] of 3.3.
For `NS(=O)(=O)c1cc(NC(=O)Cc2ccccc2Cl)ccc1Oc1cccc(Cl)c1`, the solubility thermodynamic in [1] turned out to be 7 µg/mL (≈ 15.5 µM). Also, the log distribution coefficient (logD) in [2] is 3.
On to `NS(=O)(=O)c1cc(NC(=O)Cc2ccccc2)ccc1Oc1cccc(Cl)c1` [BAY-1797], for which, in [1], the solubility thermodynamic is 16 µg/mL (≈ 38.4 µM). In [2], this molecule showed a pH-dependent lipophilicity (logD) of 2.8. In addition, the bioavailability in [3] came out at 43%. The Vd in series [7] is 2.77 L/kg. For the same molecule, the AUC in [8] is 1.06 kg·h/L. For the same molecule, in series [6], the Papp A→B at 2 h, 2 µM stood at 13.2 ×10⁻⁶ cm/s. Besides, the “Cp(f)” value was 186 nM in series [9], 374 nM in series [10], 672 nM in [11] and 548 nM in series [12].
Take `NS(=O)(=O)c1cc(NC(=O)Cc2ccccc2Cl)ccc1OCc1ccccc1`: the Therm_solubility result in series [1] is listed as “Insoluble”.

The record behind these values is ChEMBL document CHEMBL4321858 (J Med Chem, 2019).
